Consider nine compounds from US11738034B2, “Triphenylphosphonium-derivative compounds for eradicating cancer stem cells” (LUNELLA BIOTECH, INC., priority 2017, dated 2023).

The test system of one data set is MCF-7 breast CSCs. The experiment in a line: 3D Spheroid (mammosphere) assay, CSC propagation. The format is cell-based, human. The settings on record: MCF-7, treated for 5 days in mammosphere media; read-out: IC-50, CSC propagation (mammosphere formation). The protocol: Following validation, the inventors evaluated the effects of these TPP-derivative compounds on the propagation of CSCs, using the mammosphere assay as a read-out. […] The data presented in FIG. 9, from left to right, are TPP-derivatives in the following order: 2,4-dichlorobenzyl-TPP (black); 1-naphthylmethyl-TPP (inclined lines); 3-methylbenzyl-TPP (dotted lines); 2-chlorobenzyl-TPP (white); 2-butene-1,4-bis-TPP (horizontal lines). Cells were treated for 5 days in mammosphere media. Data are represented as mean+/−SEM.
For the 3D Spheroid (mammosphere) assay, a single cell suspension of MCF-7 cells was prepared using enzymatic (lx Trypsin-EDTA, Sigma Aldrich, #T3924) and manual disaggregation (25 gauge needle) to create a single cell suspension. […] Different TPP derivatives were previously diluted in the mammosphere media before addition of cells. […] After 5 days of culture, spheres >50 μm were counted using an eyepiece graticule and mammosphere numbers were normalized to control treatments (cells treated with vehicle only).

Another data set relates to MCF-7 cells. The experiment in a line: Mitochondrial oxygen consumption rate (OCR), Seahorse XFe96. The format is cell-based, human. Particulars: MCF-7, Seahorse, FIGS. 6-8. The text has this: Some embodiments of the present approach relate to identifying TPP-derivatives compounds that target mitochondria in CSCs and represent potential anti-cancer therapies. To further validate that the ATP level reduction of the TPP compounds was indeed due to the inhibition of mitochondrial function, we directly measured mitochondrial oxygen consumption rates (OCR) using the Seahorse XFe96 metabolic flux analyser.
FIG. 6 illustrates the impaired mitochondrial function of MCF-7 cells after treatment with TPP Compound 1. FIGS. 7A and 7B illustrate the impaired mitochondrial function of MCF-7 cells after treatment with either TPP Compound 2 or TPP Compound 3. […] Oxygen consumption rate (OCR) was measured with a Seahorse XF96 Extracellular Flux Analyzer. Data are represented as mean+/−SEM. […] For FIG. 6, **p<0.01; ***p<0.001; indicates significance, all relative to the control. […] For FIG. 7, **p<0.01; ***p<0.001; indicates significance, all relative to the control. […] And for FIG. 8, **p<0.01; ***p<0.001; indicates significance, all relative to the control.
For measuring the mitochondrial OCR, mitochondrial function was determined by using the XF Cell Mito Stress Test Kit (Seahorse Bioscience, MA, USA) with a Seahorse XFe96 Extracellular Flux Analyzer (Seahorse Bioscience, MA, USA). MCF-7 cells were seeded in a specialized 96-well tissue culture plate (XF96 microplate). The next day, the TPP derivatives were added and the plate was incubated for 72 hours. Before the experiment media was changed to XF base medium (including 1 mM pyruvate, 2 mM glutamine and 10 mM glucose), cells were incubated at 37° C. in a CO2-free atmosphere for one hour before measurement. After detection of basal OCR (an indicator for mitochondrial respiration) OCR responses were evaluated towards the application of oligomycin (1 μM), FCCP (600 nM), and the combination of antimycin (1 μM) and rotenone (1 μM). From these measurements various parameters of mitochondrial function were determined. To determine cell viability in the measured wells sulphorodamine (SRB) assay was performed. Oxygen consumption rate values were then normalized to the given SRB values.

Data set [1] deals with MCF-7 human breast cancer cells. Briefly: ATP-depletion assay (CellTiter-Glo & Hoechst 33342) in MCF-7 cells. The format is cell-based. The settings on record: for effect on ATP levels in initial screen (positive hit): MCF-7, ATP depletion screen of nine TPP-derivatives; for effect on ATP levels in validation (FIGS. 2-4): MCF-7 treated for 72 h; for Hoechst staining (%) / ATP level (%): MCF-7 cell line, 50 μM treatment for 72 hours, normalized to control; for Hoechst staining (%): cell viability. From the text: In order to identify new molecules that can be used to target mitochondria within CSCs, the inventors screened a variety of TPP-derivatives as described herein, by employing CellTiter-Glo to measure intracellular levels of ATP in adherent cancer cells (MCF-7) in 96-well plates. As 85% of cellular ATP is normally derived from mitochondrial metabolism, ATP levels are an excellent read-out to monitor mitochondrial function. In parallel, the same 96-well plates were also stained with Hoechst 33342, to measure DNA content, to gauge cell viability. Therefore, we randomly selected 9 TPP derivatives and subjected them to screening in our assay system.
With respect to the ATP-depletion assay (with CellTiter-Glo & Hoechst 33342), MCF-7 cells were treated with different TPP derivatives for 72 hours in a black 96-well plate then wells were washed with PBS and were stained with Hoechst 33342 dye at a final concentration of 10 μg/ml. Fluorescence was read by a plate reader at 355 nm (excitation), 460 nm (emission). After washing with PBS CellTiterGlo luminescent assay (Promega) was performed according to the manufacturer's protocols to determine intracellular ATP levels in the Hoechst dye stained cells. Both the fluorescent and luminescent data were normalized to control levels and were shown as percentage for comparison.

Data set [2] deals with normal fibroblasts (hTERT-BJ1). The experiment in a line: Cell viability (Hoechst) and intracellular ATP levels in normal fibroblasts. The format is cell-based, human. The settings on record: hTERT-BJ1, 1 μM, 72 h. The protocol: Cell viability and intracellular ATP levels were determined in the same treated samples. Hoechst staining (%) of hTERT-BJ1 human fibroblasts (black); ATP level (%) of hTERT-BJ1 human fibroblasts (dotted); Hoechst staining (%) of MCF-7 cells (inclined lines); ATP level (%) of MCF-7 cells (white). TPP treatments at 1 μM, 72 h. Data are represented as mean+/−SEM. *p<0.05; **p<0.01; indicates significance, all relative to the control.
With respect to cell culture and reagents, the human breast adenocarcinoma cell line (MCF-7) was from the American Type Culture Collection (ATCC). hTERT-BJ1 cells were from Clontech, Inc. MCF-7 and hTERT-BJ1 cells were grown in DMEM supplemented with 10% fetal bovine serum, GlutaMAX and 1% penicillin-streptomycin and incubated at 37 C in a humidified 5% CO2 incubator. The medium was changed 2-3 times/week. […]
With respect to the ATP-depletion assay (with CellTiter-Glo & Hoechst 33342), MCF-7 cells were treated with different TPP derivatives for 72 hours in a black 96-well plate then wells were washed with PBS and were stained with Hoechst 33342 dye at a final concentration of 10 μg/ml. Fluorescence was read by a plate reader at 355 nm (excitation), 460 nm (emission). […]

Turning to `c1ccc([P+](Cc2cccc3ccccc23)(c2ccccc2)c2ccccc2)cc1` [1-naphthylmethyl-TPP], in the data set with MCF-7 breast CSCs, the IC50 is more than 5000 nM. Also, the “effect on mitochondrial oxygen consumption” value in the data set with MCF-7 cells was “effectively inhibit mitochondrial oxygen consumption”. In data set [1], the “effect on ATP levels in initial screen (positive hit)” value (“effect on ATP levels … (positive hit)” for short) is “significantly reduced ATP levels” and the “effect on ATP levels in validation (FIGS. 2-4)” value (“effect … (FIGS. 2-4)” below) was “progressively deplete cellular ATP levels”.

As to `Clc1ccc(C[P+](c2ccccc2)(c2ccccc2)c2ccccc2)c(Cl)c1` [2,4-dichlorobenzyl-TPP], the “effect on mitochondrial oxygen consumption” value in the data set with MCF-7 cells is listed as “effectively inhibit mitochondrial oxygen consumption”. Also, in data set [1], the “effect on ATP levels … (positive hit)” value is “significantly reduced ATP levels” and the “effect … (FIGS. 2-4)” value was “progressively deplete cellular ATP levels”.

As to `C(=CC[P+](c1ccccc1)(c1ccccc1)c1ccccc1)C[P+](c1ccccc1)(c1ccccc1)c1ccccc1` [2-butene-1,4-bis-TPP], the IC50 in the data set with MCF-7 breast CSCs was less than 500 nM. For the same compound, in the data set with MCF-7 cells, the “effect on mitochondrial oxygen consumption” value is reported as “effectively inhibits mitochondrial oxygen consumption”. In addition, in data set [2], the “effect on cell viability in human fibroblasts” value was “no effect on cell viability” and the “reduction of ATP levels in human fibroblasts” value is 25%. Further, in data set [1] (MCF-7, 1 μM, 72 h), the “decrease of ATP levels in MCF-7 cancer cells” value is listed as approximately 85% and the “reduction of cell viability in MCF-7 cancer cells” value is given as approximately 65%. Besides, in data set [1], the “effect on ATP levels … (positive hit)” value is reported as “significantly reduced ATP levels” and the “effect … (FIGS. 2-4)” value was “depletes ATP levels, relative to cell number”. In data set [1] (MCF-7 versus hTERT-BJ1, 1 μM), the “fold more effective at reducing ATP levels in cancer cells, relative to normal fibroblasts” value is listed as 4.7 fold and the “fold more effective at reducing cell viability in cancer cells (versus fibroblasts)” value is listed as 2.8 fold.

Regarding `Clc1ccccc1C[P+](c1ccccc1)(c1ccccc1)c1ccccc1` [2-chlorobenzyl-TPP], the “effect on mitochondrial oxygen consumption” value with MCF-7 cells is reported as “effectively inhibit mitochondrial oxygen consumption”. In data set [1], the “effect on ATP levels … (positive hit)” value is given as “significantly reduced ATP levels” and the “effect … (FIGS. 2-4)” value is on record as “progressively deplete cellular ATP levels”.

Take `Cc1cccc(C[P+](c2ccccc2)(c2ccccc2)c2ccccc2)c1` [3-methylbenzyl-TPP]: the “effect on mitochondrial oxygen consumption” value in the data set on MCF-7 cells is “effectively inhibit mitochondrial oxygen consumption”. In addition, in data set [1], the “effect on ATP levels … (positive hit)” value was “significantly reduced ATP levels” and the “effect … (FIGS. 2-4)” value was “progressively deplete cellular ATP levels”.

For the compound `N#Cc1ccc(C[P+](c2ccccc2)(c2ccccc2)c2ccccc2)cc1` [4-cyanobenzyl-TPP], in data set [1], the “Hoechst staining (%)” value was 72.7% and the “ATP level (%)” value turned out to be 68.2%.

As for `N#CC[P+](c1ccccc1)(c1ccccc1)c1ccccc1` [cyanomethyl-TPP], in data set [1], the “Hoechst staining (%)” value is recorded as 97.2% and the “ATP level (%)” value came to 95.1%.

Take `CC1(C)CC(NC(=O)C[P+](c2ccccc2)(c2ccccc2)c2ccccc2)CC(C)(C)N1[O]` [mito-TEMPO, (2-(2,2,6,6-Tetramethylpiperidin-1-oxyl-4-ylamino)-2-oxoethyl)triphenylphosphonium chloride, reference compound]: in data set [1], the “Hoechst staining (%)” value was 100.0% and the “ATP level (%)” value is 100.0%.

For `c1ccc([P+](Cc2ccc(C[P+](c3ccccc3)(c3ccccc3)c3ccccc3)cc2)(c2ccccc2)c2ccccc2)cc1` [p-xylylenebis-TPP, p-xylylene-bis-TPP], in data set [1], the “Hoechst staining (%)” value is on record as 69.1% and the “ATP level (%)” value turned out to be 43.9%.
